One molecule from patent US20230355517A1, “USE OF ACTIVE SUBSTANCES WITH ANTIVIRAL, ANTI MALARIAL, AND/OR MUCOLYTIC PROPERTIES IN THE TREATMENT OF VIRAL LUNG DISEASES INCLUDING COVID-19 BY SOFT MIST INHALER OR VIBRATION MESH TECHNOLOGY NEBULIZER THROUGH INHALATION ROUTE” (ATANBUL UNIVERSITESI REKTOLUGU, priority 2020, published 2023) can be followed below.

SMILES strings stand for the structures.

Data set [1] can be described thus: pH analysis of compositions containing favipiravir. The class given is physicochemical. On the procedure:
In the present invention, pH analysis was performed for the composition containing favipiravir. […] When it is formulated with phosphate buffer, pH values thereof approach 7,4. Therefore, in consideration of all combinations, the pH interval for the formulations was kept in the range of 3.5-8.0.

A further data set deals with lung tissue. Set-up: species or system rats. Particulars: rat, in vivo.
The format of data set [2] is physicochemical. Particulars: pH 7.4. On the procedure:
In the present invention, a study for solubility of favipiravir active substance was conducted.

For the molecule `NC(=O)c1nc(F)c[nH]c1=O` [favipiravir], the pH values in data set [1] (formulated with phosphate buffer) is ~7,4. Further, the “smallest pH value” in data set [1] (in combinations of physiological saline, half physiological saline, and HP-β-cyclodextrin) is 3.56-3.62. In the data set on lung tissue, the “histological damage scores of the lungs (H&E)” value is listed as “not statistically different” and the “lung histology under light microscopy” value is on record as “Normal lung histology”. In addition, the solubility entry in data set [2] is “further increased”.
